# In publication PMC2803436 (Current Chemical Genomics, 2008):
# Non-standard residues stand in square brackets, D forms with d. Residues, ends and D or L forms follow the SMILES beside them. Nle = CCCC[C@H](N)C(=O)O
# Assays:
# TEV protease [1] = target: T1, TEV protease (Tobacco etch virus, UniProt P04517); assay: CP234-Luc/ENLYFQC verification assay; details: SCH HBr and L-DOPA tested from 0 – 1 mM; NF-023 and ATA from 0 – 0.2 mM
# T1 sequence (P04517 2038-2279): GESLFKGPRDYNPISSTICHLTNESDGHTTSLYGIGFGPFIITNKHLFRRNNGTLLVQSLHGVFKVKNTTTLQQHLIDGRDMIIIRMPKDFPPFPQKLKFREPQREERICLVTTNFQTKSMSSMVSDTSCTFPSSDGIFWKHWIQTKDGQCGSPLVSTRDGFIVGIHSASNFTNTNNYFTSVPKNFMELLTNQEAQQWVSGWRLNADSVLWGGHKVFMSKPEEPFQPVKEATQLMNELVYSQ
# TEV protease [2] = target: T1, TEV protease; assay: LOPAC1280 library screen using the CP234-Luc/ENLYFQC protease assay; assay type: biochemical; details: compounds at 100 µM, 15 minutes at room temperature
# TEV protease [3] = assay: Initial tests of established inhibitors on TEV protease; assay type: biochemical, Tobacco Etch Virus; details: for Inhibition of TEV protease by known inhibitors of cysteine proteases: data not shown
# TEV protease [4] = target: T1, TEV protease; assay: Protein fusion; assay type: biochemical; details: tested from 0 – 0.1 mM
Molecule,"Inhibition of TEV protease cleavage in re-test, CP234-Luc/ENLYFQC assay (TEV protease [1])",Inhibition of TEV protease by known inhibitors of cysteine proteases (TEV protease [3]),other results
"O=C(O)C1=CC(=C(c2ccc(O)c(C(=O)O)c2)c2ccc(O)c(C(=O)O)c2)C=CC1=O [ATA, aurintricarboxylic acid]",confirmed,–,TEV protease inhibition (cleavage of CP234-Luc/ENLYFQC) in primary screen (TEV protease [2]): greater than 60%
CC(C)C[C@H](NC(=O)[C@H]1O[C@@H]1C(=O)O)C(=O)NCCCCN=C(N)N [E-64],–,resistant,–
"CCCC[C@@H](C=O)NC(=O)[C@H](CC(C)C)NC(=O)[C@H](CC(C)C)NC(C)=O [ALLN, N-acetyl-Leu-Leu-NIe-CHO] (Ac-Leu-Leu-[Nle]-aldehyde)",–,resistant,–
"2,5-dihydroxy-DL-tyrosine [L-DOPA]",did not inhibit,–,"Inhibition of TEV protease cleavage in re-test, protein fusion cleavage assay (TEV protease [4]): did not inhibit"
"Br.CN=c1nc(-c2ccccc2)n(-c2ccccc2)s1 [SCH HBr, N-(2,3-diphenyl-1,2,4-thiadiazol-5-(2H)-ylidene)methanamine hydrobromide]",did not inhibit,–,"Inhibition of TEV protease cleavage in re-test, protein fusion cleavage assay (TEV protease [4]): did not inhibit"
"CCOC(=O)[C@H]1O[C@@H]1C(=O)N[C@@H](CC(C)C)C(=O)NCCC(C)C (relative stereo) [EST, (2S,3S)-trans-Epoxysuccinyl-L-leucylamido-3-methylbutane Ethyl Ester]",–,resistant,–
[Zn] [zinc],–,–,"Inhibition of TEV protease (TEV protease [3]; 5 mM, also frequently precipitated the proteins out of solution): effectively inhibited"
